Like-named read-outs stand apart in the source and are kept apart here.
Legend:
tumor stem cells = assay: Tumor stem cell killing in tissue culture in vitro; format: cell-based
[1] = tested on: ER negative breast cancer cells (BT-20 and MDA-MB-231) and ER positive cells (BT-474 and MCF-7); assay: Apoptosis/necrosis (annexin V / propidium iodide) and ROS in breast cancer cells; format: cell-based; details: for dose dependence of cell death: ER-positive and ER-negative breast cancer cells, increasing concentrations, most pronounced with TNBC cells; for generation of ROS: substantially reduced by NAC, significantly increased with BSO
Description: Methods: Primary and metastatic ER negative breast cancer cells (BT-20 and MDA-MB-231) and ER positive cells (BT-474 and MCF-7) were separately treated with increasing concentrations of Taurolidine and 2250 as shown in FIG. 7A and FIG. 8A. Apoptosis and necrosis were evaluated based on phosphatidylserine externalization using annexin V and propidium iodide (PI). The contribution of caspases 3, 8 and 9 on apoptosis, and autophagy was evaluated by both flow cytometry and western blotting. The impact of reactive oxygen species (ROS) was evaluated using the radical scavenger agent n-acetylcysteine (NAC) and buthionine-sulfoximine (BSO), a glutathione-depleting agent. Necroptosis was evaluated using nescrostatin-1, a potent inhibitor of the process.

[2] = Wound healing after administration during or after surgery; details: administered during surgery and immediately after surgery
[3] = Half-life in human fresh blood at 37° C.; format: in vitro ADME; details: for half-life: human, fresh whole blood
Description: The half-life of 2250 was measured in human fresh blood at 37° C.

[4] = tested on: human peripheral blood monocytes; assay: Safety in non-neoplastic cells: cell death of monocytes; format: cell-based; details: for cell death in human peripheral blood monocytes: 100 microMol up to 5000 microMol; for effect on peripherally derived human monocytes: high doses (5 mM), after 24 hours (FIG. 7B)
[5] = Water solubility / isotonicity; format: physicochemical

Compound	killing of tumor stem cells (tumor stem cells)	dose dependence of cell death [1]	generation of ROS [1]	effect on wound healing [2]	Concentration of 2250 measured ([3]; human fresh blood, 37° C., 0-1 hours)	Concentration of 2250 measured ([3]; human fresh blood, 37° C., 2 hours)	half-life ([3]; human blood, read-out: half-life in human blood)	half-life ([3]; human fresh blood, 37° C., calculated from measured concentrations, read-out: half-life (calculated) (converted))	cell death in human peripheral blood monocytes [4]	effect on peripherally derived human monocytes [4]	solubility in water ([5]; no PVP necessary)	concentration of isotonic solution ([5]; solution)	half-life ([3]; human blood, same test, read-out: half-life in human blood)	concentration effective at killing tumor stem cells (tumor stem cells; tissue culture in vitro)
O=S1(=O)CCNCN1 [taurultam]	kill tumor stem cells	–	–	–	–	–	–	–	–	–	–	–	–	–
O=S1(=O)CCOCN1 [C-2250, Tetrahydro1,4,5-oxathiazin-4-dioxide]	–	Dose-dependent increases in cell death	induced generation of ROS	do not hinder wound healing	50 ppm	47.7 ppm	> 24 h	~40 h	did not induce any significant cell death	no significant effect	very soluble in water	3.2%	–	–
O=S1(=O)CCN(CN2CCS(=O)(=O)NC2)CN1 [taurolidine, reference compound]	kill tumor stem cells	Dose-dependent increases in cell death	induced generation of ROS	–	–	–	–	–	did not induce any significant cell death	no significant effect	–	–	~0.5 h	0.01 µg/mL
